Test results reported in patent publication US10414769B2, “5,8-dimethyl-9-phenyl-5,8-dihydro-6H-pyrazolo[3,4-h]quinazolin-2-yl)-(1H-pyrazol-3-yl)-amines as IGF-1R/IR inhibitors” (Boehringer Ingelheim International GmbH, priority 2015, dated 2019).

Key:
Type in all cases: biochemical
[1] = biological target: T1, NEK2 (Homo sapiens, UniProt P51955); experiment: Z'-LYTE kinase selectivity assay NEK2
T1 construct: purchased Life Technologies PV 3360
T1 sequence (P51955 1-445): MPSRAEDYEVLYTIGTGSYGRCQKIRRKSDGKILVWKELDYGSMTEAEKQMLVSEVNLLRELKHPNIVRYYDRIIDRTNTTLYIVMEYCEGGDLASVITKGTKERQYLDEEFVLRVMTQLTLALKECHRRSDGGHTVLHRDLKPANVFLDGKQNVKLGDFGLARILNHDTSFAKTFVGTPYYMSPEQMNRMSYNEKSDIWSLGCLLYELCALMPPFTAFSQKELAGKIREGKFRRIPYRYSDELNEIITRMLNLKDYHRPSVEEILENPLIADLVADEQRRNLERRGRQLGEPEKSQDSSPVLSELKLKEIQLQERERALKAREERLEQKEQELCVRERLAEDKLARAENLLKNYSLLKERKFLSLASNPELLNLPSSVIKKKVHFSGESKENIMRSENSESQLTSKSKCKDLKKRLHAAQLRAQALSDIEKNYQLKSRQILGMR
Excerpt: (§1) In order to compare the kinase selectivity of compounds (I) according to the invention with known prior art compounds the commercially provided SelectScreen® Kinase Profiling Service (Z′-LYTE®) was used (Life Technologies GmbH, Darmstadt, Germany) to investigate the ability of the compounds to inhibit a number of different, representatively selected human kinases. Further details regarding this service are available on the Life Technologies website at
(§2) The Z′-LYTE® biochemical assay employs a fluorescence-based, coupled-enzyme format and is based on the differential sensitivity of phosphorylated and non-phosphorylated peptides to proteolytic cleavage. The peptide substrate is labeled with two fluorophores—one at each end—that make up a FRET pair.
(§3) In the primary reaction, the kinase transfers the gamma-phosphate of ATP to a single tyrosine, serine or threonine residue in a synthetic FRET-peptide. In the secondary reaction, a site-specific protease recognizes and cleaves non-phosphorylated FRET-peptides. Phosphorylation of FRET-peptides suppresses cleavage by the Development Reagent. Cleavage disrupts FRET between the donor (i.e., coumarin) and acceptor (i.e., fluorescein) fluorophores on the FRET-peptide, whereas uncleaved, phosphorylated FRET-peptides maintain FRET. A ratiometric method, which calculates the ratio (the Emission Ratio) of donor emission to acceptor emission after excitation of the donor fluorophore at 400 nm, is used to quantitate reaction progress, as shown in the equation below.
(§4) The Test Compounds are screened at 1 μM.
The 2×NEK2 (# PV 3360)/Ser/Thr 07 (Z′-LYTE® Kinase Assay Kit—Ser/Thr 7 Peptide, # PV 3180) mixture is prepared in 50 mM HEPES pH 7.5, 0.01% BRIJ-35, 10 mM MgCl2, 1 mM EGTA. The final 10 μL Kinase Reaction consists of 0.5-5.4 ng NEK2 and 2 μM Ser/Thr 07 in 50 mM HEPES pH 7.5, 0.01% BRIJ-35, 10 mM MgCl2, 1 mM EGTA. After the 1 hour Kinase Reaction incubation, 5 μL of a 1:65000 dilution of Development Reagent A is added.

[2] = biological target: T2, MYLK2 (skMLCK) (Homo sapiens, UniProt Q9H1R3); experiment: Z'-LYTE kinase selectivity assay MYLK2
T2 construct: purchased Life Technologies PV 3757
Excerpt: as §1, §2, §3, §4
The 2×MYLK2 (skMLCK) (# PV 3757)/Ser/Thr 13 (Z′-LYTE® Kinase Assay Kit—Ser/Thr 13 Peptide, # PV 3793) mixture is prepared in 50 mM HEPES pH 7.5, 0.01% BRIJ-35, 10 mM MgCl2, 1 mM EGTA, 4 mM CaCl2, 800 U/mL Calmodulin, 0.02% NaN3. The final 10 μL Kinase Reaction consists of 6.71-48.9 ng MYLK2 (skMLCK) and 2 μM Ser/Thr 13 in 50 mM HEPES pH 7.5, 0.01% BRIJ-35, 10 mM MgCl2, 1 mM EGTA, 2 mM CaCl2, 400 U/mL Calmodulin, 0.01% NaN3. After the 1 hour Kinase Reaction incubation, 5 μL of a 1:1024 dilution of Development Reagent A is added.

[3] = biological target: T3, CDK2/cyclin A (Homo sapiens, UniProt P24941); experiment: Z'-LYTE kinase selectivity assay CDK2/cyclin A; settings: read-out: CDK2/CYCLINA % inhibition
T3 construct: purchased Life Technologies PV 3267
Excerpt: as §1, §2, §3, §4
The 2×CDK2/cyclin A (# PV 3267)/Ser/Thr 12 (Z′-LYTE® Kinase Assay Kit—Ser/Thr 12 Peptide, # PV 3673) mixture is prepared in 50 mM HEPES pH 7.5, 0.01% BRIJ-35, 10 mM MgCl2, 1 mM EGTA. The final 10 μL Kinase Reaction consists of 1.22-10.3 ng CDK2/cyclin A and 2 μM Ser/Thr 12 in 50 mM HEPES pH 7.5, 0.01% BRIJ-35, 10 mM MgCl2. 1 mM EGTA. After the 1 hour Kinase Reaction incubation, 5 μL of a 1:4096 dilution of Development Reagent A is added.

[4] = biological target: T4, EGFR (ErbB1) (Homo sapiens, UniProt P00533); experiment: Z'-LYTE kinase selectivity assay EGFR
T4 construct: purchased Life Technologies PV 3872
Excerpt: as §1, §2, §3, §4
The 2×EGFR (ErbB1) (# PV 3872)/Tyr 04 (Z′-LYTE® Kinase Assay Kit—Tyrosine 4 Peptide, # PV 3193) mixture is prepared in 50 mM HEPES pH 7.5, 0.01% BRIJ-35, 10 mM MgCl2, 4 mM MnCl2, 1 mM EGTA, 2 mM DTT. The final 10 μL Kinase Reaction consists of 1.1-8 ng EGFR (ErbB1) and 2 μM Tyr 04 in 50 mM HEPES pH 7.5, 0.01% BRIJ-35, 10 mM MgCl2, 2 mM MnCl2, 1 mM EGTA, 1 mM DTT. After the 1 hour Kinase Reaction incubation, 5 μL of a 1:64 dilution of Development Reagent B is added.

[5] = biological target: T5, PRKACA (PKA) (Homo sapiens, UniProt P17612); experiment: Z'-LYTE kinase selectivity assay PRKACA
T5 construct: purchased Life Technologies P 2912
Excerpt: as §1, §2, §3, §4
The 2×PRKACA (PKA) (# P 2912)/Ser/Thr 01 (Z′-LYTE® Kinase Assay Kit—Ser/Thr 1 Peptide, # PV 3174) mixture is prepared in 50 mM HEPES pH 7.5, 0.01% BRIJ-35, 10 mM MgCl2, 1 mM EGTA. The final 10 μL Kinase Reaction consists of 0.03-0.15 ng PRKACA (PKA) and 2 μM Ser/Thr 01 in 50 mM HEPES pH 7.5, 0.01% BRIJ-35, 10 mM MgCl2, 1 mM EGTA. After the 1 hour Kinase Reaction incubation, 5 μL of a 1:4096 dilution of Development Reagent A is added.

T4 sequence (P00533 25-1210): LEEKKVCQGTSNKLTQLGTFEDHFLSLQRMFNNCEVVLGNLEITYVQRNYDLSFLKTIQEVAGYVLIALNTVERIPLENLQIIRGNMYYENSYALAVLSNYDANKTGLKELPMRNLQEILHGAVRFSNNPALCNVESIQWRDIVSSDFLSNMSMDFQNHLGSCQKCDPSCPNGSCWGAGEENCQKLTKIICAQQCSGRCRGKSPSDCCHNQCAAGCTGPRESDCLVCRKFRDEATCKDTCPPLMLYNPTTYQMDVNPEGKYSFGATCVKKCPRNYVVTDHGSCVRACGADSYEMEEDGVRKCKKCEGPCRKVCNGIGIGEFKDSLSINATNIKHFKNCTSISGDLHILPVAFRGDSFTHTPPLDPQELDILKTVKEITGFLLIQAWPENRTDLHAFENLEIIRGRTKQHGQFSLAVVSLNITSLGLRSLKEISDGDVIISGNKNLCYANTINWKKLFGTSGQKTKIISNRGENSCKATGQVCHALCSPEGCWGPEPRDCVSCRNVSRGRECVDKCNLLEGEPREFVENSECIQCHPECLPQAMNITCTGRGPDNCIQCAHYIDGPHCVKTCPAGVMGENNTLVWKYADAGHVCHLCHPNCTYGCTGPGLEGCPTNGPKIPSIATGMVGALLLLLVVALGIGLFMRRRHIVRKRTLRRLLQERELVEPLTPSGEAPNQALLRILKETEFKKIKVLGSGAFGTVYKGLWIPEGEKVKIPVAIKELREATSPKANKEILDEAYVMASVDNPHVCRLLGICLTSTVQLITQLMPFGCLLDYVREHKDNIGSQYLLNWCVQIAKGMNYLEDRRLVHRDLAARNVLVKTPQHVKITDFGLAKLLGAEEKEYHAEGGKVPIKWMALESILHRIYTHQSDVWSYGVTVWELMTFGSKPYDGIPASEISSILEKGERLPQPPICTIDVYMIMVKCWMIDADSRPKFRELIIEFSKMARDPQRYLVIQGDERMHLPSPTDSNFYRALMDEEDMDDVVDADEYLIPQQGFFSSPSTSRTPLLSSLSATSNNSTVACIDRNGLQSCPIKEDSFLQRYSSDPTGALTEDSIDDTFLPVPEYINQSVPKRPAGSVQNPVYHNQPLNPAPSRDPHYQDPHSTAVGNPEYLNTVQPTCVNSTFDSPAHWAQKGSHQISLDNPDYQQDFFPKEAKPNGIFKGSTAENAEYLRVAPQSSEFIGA

Row | Compound | inhibition at 1 µM [1] [%] | inhibition at 1 µM [2] [%] | inhibition at 1 µM [3] [%] | inhibition at 1 µM [4] [%] | inhibition at 1 µM [5] [%]
1 | C[C@@H]1Cc2nn(C)c(-c3ccccc3)c2-c2nc(Nc3ccn(CCN4CCN(C)CC4)n3)ncc21 [Compound I-1] | 15 | 16 | 72 | 65 | -5
2 | C[C@@H]1Cc2nn(C)c(-c3ccccc3)c2-c2nc(Nc3ccn(CCN4CCN(CC(=O)OC5CCOCC5)CC4)n3)ncc21 [Compound I-8] | 22 | 13 | 49 | 56 | 16
3 | C[C@@H]1Cc2nn(C)c(-c3ccccc3)c2-c2nc(Nc3ccn(CCN4CCN(CC(C)(C)O)CC4)n3)ncc21 [Compound I-3] | 29 | 12 | 66 | 72 | 13
4 | CC(O)CN1CCN(CCn2ccc(Nc3ncc4c(n3)-c3c(nn(C)c3-c3ccccc3)C[C@H]4C)n2)CC1 (some centres unmarked) [Compound I-7] | 32 | 23 | 74 | 77 | 16
5 | C[C@@H]1Cc2nn(C)c(-c3ccccc3)c2-c2nc(Nc3ccn(CCN4CCOCC4)n3)ncc21 [Compound I-2] | 25 | 3 | 56 | 68 | 22
6 | C[C@@H]1Cc2nn(C)c(-c3ccccc3)c2-c2nc(Nc3ccn(CCN4CCN(CC5CCCO5)CC4)n3)ncc21 (some centres unmarked) [Compound I-9] | 32 | 10 | 63 | 65 | 17
7 | COCCN1CCN(CCn2ccc(Nc3ncc4c(n3)-c3c(nn(C)c3-c3ccccc3)C[C@H]4C)n2)CC1 [Compound I-11] | 24 | 16 | 53 | 53 | -3
